Data from PubChem BioAssay (NCI).
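All cell lines were grown in 96-well plates and treated with compound for 48 hours. At the TGI there is no net growth.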

Assays:
Experiment in all cases: NCI anticancer screen, dose series, 48 h
HOP-92 NSCLC = tested on: HOP-92 NSCLC
MOLT-4 leukemia = tested on: MOLT-4 leukemia
K-562 leukemia = tested on: K-562 leukemia
A498 renal = tested on: A498 renal
CAKI-1 renal = tested on: CAKI-1 renal
TK-10 renal = tested on: TK-10 renal
EKVX NSCLC = tested on: EKVX NSCLC
ACHN renal = tested on: ACHN renal
KM20L2 colon = tested on: KM20L2 colon
RPMI-8226 leukemia = tested on: RPMI-8226 leukemia
RXF 393 renal = tested on: RXF 393 renal
NCI-H23 lung = tested on: NCI-H23 lung
SF-268 CNS = tested on: SF-268 CNS
LXFL 529 NSCLC = tested on: LXFL 529 NSCLC
DLD-1 colon = tested on: DLD-1 colon
CCRF-CEM leukemia = tested on: CCRF-CEM leukemia
UACC-62 melanoma = tested on: UACC-62 melanoma
NCI-H460 lung = tested on: NCI-H460 lung
HCT-15 colon = tested on: HCT-15 colon
SK-MEL-28 melanoma = tested on: SK-MEL-28 melanoma
U251 CNS = tested on: U251 CNS
SK-OV-3 ovarian = tested on: SK-OV-3 ovarian
LOX IMVI melanoma = tested on: LOX IMVI melanoma
SK-MEL-5 melanoma = tested on: SK-MEL-5 melanoma
NCI-H522 lung = tested on: NCI-H522 lung
OVCAR-8 ovarian = tested on: OVCAR-8 ovarian
SN12C renal = tested on: SN12C renal
HCT-116 colon = tested on: HCT-116 colon
HT29 colon = tested on: HT29 colon
UO-31 renal = tested on: UO-31 renal
SF-539 CNS = tested on: SF-539 CNS
786-0 renal = tested on: 786-0 renal
M19-MEL melanoma = tested on: M19-MEL melanoma
SF-295 CNS = tested on: SF-295 CNS
IGROV1 ovarian = tested on: IGROV1 ovarian
HOP-18 NSCLC = tested on: HOP-18 NSCLC
RXF-631 renal = tested on: RXF-631 renal
A549 NSCLC = tested on: A549 NSCLC
M14 melanoma = tested on: M14 melanoma
COLO 205 colon = tested on: COLO 205 colon
SW-620 colon = tested on: SW-620 colon
DMS 114 small cell lung = tested on: DMS 114 small cell lung
UACC-257 melanoma = tested on: UACC-257 melanoma
SK-MEL-2 melanoma = tested on: SK-MEL-2 melanoma
OVCAR-3 ovarian = tested on: OVCAR-3 ovarian
HL-60(TB) leukemia = tested on: HL-60(TB) leukemia
OVCAR-4 ovarian = tested on: OVCAR-4 ovarian
XF 498 CNS = tested on: XF 498 CNS
SR leukemia = tested on: SR leukemia
SNB-19 CNS = tested on: SNB-19 CNS
MALME-3M melanoma = tested on: MALME-3M melanoma
SNB-75 CNS = tested on: SNB-75 CNS
NCI-H226 lung = tested on: NCI-H226 lung
HOP-62 NSCLC = tested on: HOP-62 NSCLC
KM12 colon = tested on: KM12 colon

Work on `Cn1c(CBr)nc2c1C(=O)c1nc(CBr)[nH]c(=O)c1C2=O` yielded a TGI (HOP-92 NSCLC) of over 100 µM, a TGI (MOLT-4 leukemia) of over 100 µM and a TGI (K-562 leukemia) of over 100 µM. The TGI (A498 renal) was over 100 µM, the TGI (CAKI-1 renal) was over 100 µM and the TGI (TK-10 renal) was over 100 µM. The TGI (EKVX NSCLC) was over 100 µM, the TGI (ACHN renal) was over 100 µM and the TGI (KM20L2 colon) was over 100 µM. The TGI (RPMI-8226 leukemia) was over 100 µM, the TGI (RXF 393 renal) was over 100 µM and the TGI (NCI-H23 lung) was over 100 µM. For the same compound, the TGI (SF-268 CNS) was over 100 µM, the TGI (LXFL 529 NSCLC) was over 100 µM and the TGI (DLD-1 colon) was over 100 µM. For the same compound, the TGI (CCRF-CEM leukemia) was over 100 µM, the TGI (UACC-62 melanoma) was over 100 µM and the TGI (NCI-H460 lung) was over 100 µM. The TGI (HCT-15 colon) was over 100 µM, the TGI (SK-MEL-28 melanoma) was over 100 µM and the TGI (U251 CNS) was over 100 µM. It also gave a TGI (SK-OV-3 ovarian) of over 100 µM, a TGI (LOX IMVI melanoma) of over 100 µM and a TGI (SK-MEL-5 melanoma) of over 100 µM. For the same compound, the TGI (NCI-H522 lung) was over 100 µM, the TGI (OVCAR-8 ovarian) was over 100 µM and the TGI (SN12C renal) was over 100 µM. The TGI (HCT-116 colon) was over 100 µM, the TGI (HT29 colon) was over 100 µM and the TGI (UO-31 renal) was over 100 µM. For the same compound, the TGI (SF-539 CNS) was over 100 µM, the TGI (786-0 renal) was over 100 µM and the TGI (M19-MEL melanoma) was 68.6 µM. The TGI (SF-295 CNS) was over 100 µM, the TGI (IGROV1 ovarian) was over 100 µM and the TGI (HOP-18 NSCLC) was over 100 µM. It also gave a TGI (RXF-631 renal) of over 100 µM, a TGI (A549 NSCLC) of over 100 µM and a TGI (M14 melanoma) of over 100 µM. For the same compound, the TGI (COLO 205 colon) was over 100 µM, the TGI (SW-620 colon) was over 100 µM and the TGI (DMS 114 small cell lung) was over 100 µM.
Work on `COCC(C)(C)N=CN1Cc2cc3ccccc3nc2C1` yielded a TGI (HOP-92 NSCLC) of over 100 µM, a TGI (UACC-257 melanoma) of over 100 µM and a TGI (MOLT-4 leukemia) of over 100 µM. The TGI (K-562 leukemia) was over 100 µM, the TGI (SK-MEL-2 melanoma) was over 100 µM and the TGI (CAKI-1 renal) was over 100 µM. For the same compound, the TGI (TK-10 renal) was over 100 µM, the TGI (EKVX NSCLC) was over 100 µM and the TGI (ACHN renal) was over 100 µM. The TGI (KM20L2 colon) was over 100 µM, the TGI (RPMI-8226 leukemia) was over 100 µM and the TGI (RXF 393 renal) was over 100 µM. The TGI (NCI-H23 lung) was over 100 µM, the TGI (SF-268 CNS) was over 100 µM and the TGI (DLD-1 colon) was over 100 µM. The TGI (CCRF-CEM leukemia) was over 100 µM, the TGI (UACC-62 melanoma) was over 100 µM and the TGI (NCI-H460 lung) was over 100 µM. For the same compound, the TGI (HCT-15 colon) was over 100 µM, the TGI (SK-MEL-28 melanoma) was over 100 µM and the TGI (U251 CNS) was over 100 µM. For the same compound, the TGI (OVCAR-3 ovarian) was over 100 µM, the TGI (SK-OV-3 ovarian) was over 100 µM and the TGI (HL-60(TB) leukemia) was over 100 µM. It also gave a TGI (OVCAR-4 ovarian) of over 100 µM, a TGI (SK-MEL-5 melanoma) of over 100 µM and a TGI (NCI-H522 lung) of over 100 µM. It also gave a TGI (OVCAR-8 ovarian) of over 100 µM, a TGI (XF 498 CNS) of over 100 µM and a TGI (SN12C renal) of over 100 µM. For the same compound, the TGI (HCT-116 colon) was over 100 µM, the TGI (SR leukemia) was over 100 µM and the TGI (SNB-19 CNS) was over 100 µM. The TGI (HT29 colon) was over 100 µM, the TGI (MALME-3M melanoma) was over 100 µM and the TGI (SNB-75 CNS) was over 100 µM. It also gave a TGI (UO-31 renal) of over 100 µM, a TGI (NCI-H226 lung) of over 100 µM and a TGI (SF-539 CNS) of over 100 µM. It also gave a TGI (HOP-62 NSCLC) of over 100 µM, a TGI (786-0 renal) of over 100 µM and a TGI (M19-MEL melanoma) of over 100 µM. It also gave a TGI (SF-295 CNS) of over 100 µM, a TGI (IGROV1 ovarian) of over 100 µM and a TGI (HOP-18 NSCLC) of over 100 µM. For the same compound, the TGI (A549 NSCLC) was over 100 µM, the TGI (M14 melanoma) was over 100 µM and the TGI (COLO 205 colon) was over 100 µM. The TGI (KM12 colon) was over 100 µM, the TGI (SW-620 colon) was over 100 µM and the TGI (DMS 114 small cell lung) was over 100 µM.
